Test results taken from US8524773B2, “Utilization of dialkylfumarates” (Biogen Idec International GmbH, priority 1998, dated 2013).
Structures can show the parent of a compound that is named as a salt.

Experiments:
haemagglutination [1] = test: in vitro haemagglutination; settings: compared with cyclosporine
haemagglutination [2] = test: in vivo haemagglutination; settings: compared with cyclosporine
Ehrlich ascites tumour = settings: mice; cited from earlier work
[3] = tested on: human mononuclear cells of periphere blood (PBMC cells); test: endotoxin-stimulated TNF-α secretion in PBMC cells; format: cell-based
isolated monocytes = test: endotoxin-stimulated TNF-α secretion in isolated monocytes; format: cell-based, human

SMILES: O=C(O)/C=C/C(=O)O [fumaric acid]
- effect on in vitro haemagglutination (haemagglutination [1]): comparable to that of cyclosporine
- effect on in vivo haemagglutination (haemagglutination [2]): comparable to that of cyclosporine
- growth of the Ehrlich ascites tumour (Ehrlich ascites tumour): inhibits the growth

SMILES: COC(=O)/C=C/C(=O)O [methyl hydrogen fumarate]
- endotoxin-stimulated TNF-α secretion [3]: initially increases
- endotoxin-stimulated TNF-α secretion (isolated monocytes): initially increases
